Source: US11229205B2, “Herbicidally active pyridyl-/pyrimidyl-pyrazine derivatives” (Syngenta Participations AG, priority 2017, dated 2022)

Columns and labels:
Format in all cases: in vivo
[1] = test system: Triticum aestivium (TRZAW); experiment: Pre-emergence herbicidal activity (B1); settings: Test 1b; pre-emergence application; rate 1000 g/ha; evaluated after 13 days; score 0-5
Method: (§1) Seeds of a variety of test species were sown in standard soil in pots: Triticum aestivium (TRZAW), Avena fatua (AVEFA), Alopecurus myosuroides (ALOMY), Echinochloa crus-galli (ECHCG), Lolium perenne (LOLPE), Zea Mays (ZEAMX), Abutilon theophrasti (ABUTH), Amaranthus retroflexus (AMARE) and Setaria faberi (SETFA). […] The test plants were then grown in a glasshouse under controlled conditions (at 24/16° C., day/night; 14 hours light; 65% humidity) and watered twice daily. After 13 days, the test was evaluated (5=total damage to plant; 0=no damage to plant).

[2] = test system: Avena fatua (AVEFA); experiment: Pre-emergence herbicidal activity (B1); settings: Test 1b; pre-emergence application; rate 1000 g/ha; evaluated after 13 days; score 0-5
Method: as §1

[3] = test system: Alopecurus myosuroides (ALOMY); experiment: Pre-emergence herbicidal activity (B1); settings: Test 1b; pre-emergence application; rate 1000 g/ha; evaluated after 13 days; score 0-5
Method: as §1

[4] = test system: Lolium perenne (LOLPE); experiment: Pre-emergence herbicidal activity (B1); settings: Test 1b; pre-emergence application; rate 1000 g/ha; evaluated after 13 days; score 0-5
Method: as §1

[5] = test system: Echinochloa crus-galli (ECHCG); experiment: Pre-emergence herbicidal activity (B1); settings: Test 1b; pre-emergence application; rate 1000 g/ha; evaluated after 13 days; score 0-5
Method: as §1

[6] = test system: Setaria faberi (SETFA); experiment: Pre-emergence herbicidal activity (B1); settings: Test 1b; pre-emergence application; rate 1000 g/ha; evaluated after 13 days; score 0-5
Method: as §1

[7] = test system: Triticum aestivium (TRZAW); experiment: Post-emergence herbicidal activity (B2); settings: Test B2b; post-emergence application; rate 1000 g/ha; evaluated after 13 days; score 0-5
Method: as §1

[8] = test system: Avena fatua (AVEFA); experiment: Post-emergence herbicidal activity (B2); settings: Test B2b; post-emergence application; rate 1000 g/ha; evaluated after 13 days; score 0-5
Method: as §1

[9] = test system: Alopecurus myosuroides (ALOMY); experiment: Post-emergence herbicidal activity (B2); settings: Test B2b; post-emergence application; rate 1000 g/ha; evaluated after 13 days; score 0-5
Method: as §1

[10] = test system: Lolium perenne (LOLPE); experiment: Post-emergence herbicidal activity (B2); settings: Test B2b; post-emergence application; rate 1000 g/ha; evaluated after 13 days; score 0-5
Method: as §1

[11] = test system: Echinochloa crus-galli (ECHCG); experiment: Post-emergence herbicidal activity (B2); settings: Test B2b; post-emergence application; rate 1000 g/ha; evaluated after 13 days; score 0-5
Method: as §1

[12] = test system: Setaria faberi (SETFA); experiment: Post-emergence herbicidal activity (B2); settings: Test B2b; post-emergence application; rate 1000 g/ha; evaluated after 13 days; score 0-5
Method: as §1

Compound | damage to plant, TRAZW [1] | damage to plant, AVEFA [2] | damage to plant, ALOMY [3] | damage to plant, LOLPE [4] | damage to plant, ECHCG [5] | damage to plant, SETFA [6] | damage to plant, TRAZW [7] | damage to plant, AVEFA [8] | damage to plant, ALOMY [9] | damage to plant, LOLPE [10] | damage to plant, ECHCG [11] | damage to plant, SETFA [12]
CCOC(=O)c1nc(-c2cncnc2)cnc1N [Compound G2] | 0 | 0 | 0 | 0 | 0 | 2 | 0 | 1 | 1 | 1 | 1 | 3
Nc1ncc(-c2cncc(F)c2)nc1C(F)(F)F [Compound G3, 2-amino-3-trifluoromethyl-5-(5-fluoropyrid-3-yl) pyrazine] | 1 | 1 | 1 | 0 | 3 | 4 | 0 | 3 | 0 | 2 | 4 | 3
Cc1nc(-c2cncc(F)c2)cnc1N [Compound G4] | 0 | 1 | 0 | 0 | 1 | 1 | 0 | 1 | 0 | 0 | 2 | 3
COc1nc(-c2cncc(F)c2)cnc1N [Compound G5] | 0 | 0 | 0 | 0 | 1 | 1 | 0 | 1 | 1 | 0 | 2 | 3
Nc1ncc(-c2cncnc2)nc1C(F)(F)F [Compound G6] | 0 | 1 | 0 | 0 | 1 | 2 | 0 | 1 | 0 | 1 | 3 | 3
N#Cc1nc(-c2cncc(F)c2)cnc1N [Compound G7] | 0 | 0 | 0 | 0 | 1 | 1 | 0 | 1 | 0 | 0 | 3 | 2
Nc1ncc(-c2cncc(F)c2)nc1Br [Compound G8, 2-amino-3-bromo-5-(5-fluoropyrid-3-yl)pyrazine] | 0 | 0 | 0 | 0 | 0 | 0 | 0 | 0 | 0 | 0 | 2 | 1
Nc1ncc(-c2cncnc2)nc1OCc1ccccc1 [Compound G10] | 0 | 0 | 0 | 0 | 0 | 0 | 0 | 0 | 0 | 0 | 1 | 1
Nc1ncc(-c2cncc(F)c2)nc1OCc1ccccc1 [Compound G11] | 0 | 0 | 0 | 0 | 0 | 0 | 0 | 1 | 0 | 0 | 1 | 1
OCNc1ncc(-c2cncc(F)c2)nc1C(F)(F)F [Compound G12, 2-hydroxymethylamino-3-trifluoromethyl-5-(5-fluoropyrid-3-yl)pyrazine] | 0 | 1 | 0 | 0 | 3 | 5 | 0 | 5 | 0 | 0 | 2 | 3
Cc1nc(-c2cncc(F)c2)cnc1N(C)C [Compound G13, 2-dimethylamino-3-methyl-5-(5-fluoropyrid-3-yl)pyrazine] | 0 | 0 | 0 | 0 | 0 | 1 | 0 | 1 | 0 | 0 | 1 | 3
C=C(C)c1nc(-c2cncc(F)c2)cnc1N [Compound G14, 5-(5-fluoro-3-pyridyl)-3-isopropenyl-pyrazin-2-amine] | 0 | 0 | 0 | 0 | 1 | 2 | 0 | 1 | 0 | 1 | 1 | 4
CC(C)c1nc(-c2cncc(F)c2)cnc1N [Compound G15, 2-amino-3-(prop-2-yl)-5-(5-fluoropyrid-3-yl)pyrazine] | 0 | 0 | 0 | 2 | 0 | 0 | 0 | 0 | 0 | 0 | 1 | 4
